Test results: paper PMC5947712, “High‐Throughput Kinetic Analysis for Target‐Directed Covalent Ligand Discovery” (Angewandte Chemie (International Ed. in English), 2018)

Tests used:
[1] = biological target: T1, Cdk2(C177A) (Homo sapiens, UniProt P24941, C177A); assay: Intact protein mass spectrometry of labelling, Cdk2(C177A); assay type: binding
T1 construct: made in house; host or cells: E. coli Tuner(DE3)
Experimental: (§1) Hs!Cyclin!A2!F!5’![…]!
(§2) Hs!Cyclin!A2!R!5’![…]!
(§3) Sc!CAK1!R!5’!GAATTCttatgggcttttctaattcttgcaag!
(§4) GSTBCdk2" and" GSTBcyclin" A2:! Harvested! cells! were! resuspended! in! 50! mM! HEPES! buffer! (pH7.5)! containing! 150! mM! NaCl,!
(§5) 10!mM!MgCl2,!2!mM!dithiothreitol!(DTT),!0.5!mg!mLR1!lysozyme,!and!0.01%!Triton!XR100!at!4!˚C!and!incubated!for!30!minutes.!
(§6) After! sonication! and! centrifugation! (40! min,! 16000! g),! the! supernatant! was! incubated! for! 1! h! with! glutathioneRSepharose!
(§7) beads,! washed! with! lysis! buffer! and! the! desired! protein! eluted! with! 10! mM! GSH! (100! mM! Tris,! pH! 8).! After! incubation! the! deR
(§8) sired! protein! was! cleaved! from! the! GST! tag! with! PreScission! protease! (100:1)! at! 4 °C! for! 4! hours,! the! cleaved! GST! tag! was!
(§9) removed! with! glutathioneRSepharose! beads.! Cdk2! was! concentrated! and! then! loaded! onto! a! Superdex! 75! (16/60)! column,!
(§10) eluting! with! 100! mM! phosphate! buffer! containing! 50! mM! DTT.! Purified! Cdk2! was! concentrated! to! 10! mg! mLR1!and! stored! at!–
(§11) 80! ˚C.! Cyclin! A2! was! purified! by! glutathioneRSepharose! affinity! as! described! above! with! the! following! amendments:! 100! mM!
MgCl2!was! added! after! GST! cleavage! to! minimise! protein! aggregation! and! gel! filtration! was! performed! with! 50! mM! […]
(§12) labelling! reached! completion! (as! monitored! by! fluorescence! quench! assay! and/or! intact! protein! mass! spectrometry).! […]

[2] = biological target: T2, Cdk2(WT) (Homo sapiens, UniProt P24941); assay: Intact protein mass spectrometry of labelling, Cdk2(WT); assay type: binding; set-up: made in house; host or cells: E. coli Tuner(DE3)
Experimental: Supplementary, Figure, S6!|!Acrylamide, 1,selectivity, profile.!Exponential! regressions! from!kinetic! analysis! of! acrylamide!1!
(0.5!mM)!in!reaction!with!various!thiols!(5!µM).!
Supplementary, Figure, S7!|!Cdk2(WT),is, mono%modified, by, acrylamide, 1.!(a)!Cdk2(WT)! was! phosphorylated! with! CAK1.!
pCdk2(WT)! (5! µM)! was! then! incubated! with! acrylamide!1!(0.5! mM)! in! 100! mM! phosphate! buffer!(pH! 8.0)! at! 4! ˚C! for! 18! hours.!
IntactRprotein! mass! spectra! show! complete! phosphorylation! (ΔMW! =! 80! Da)! and! complete! acrylamide! labeling! (ΔMW! =!
288!Da).!(b)!Cdk2(WT)! (5! µM)! was! incubated! with! acrylamide!1!(0.5! mM)! in! 100! mM! phosphate! buffer! (pH! 8.0)!in! the!presR
ence! or! absence! of! GSH! (1! mM)! at! room! temperature.!The! degree! of! labelling! was! monitored! by!intactRprotein! mass!specR
trometry!after!6.25!and!24!h.!The!presence!of!1!mM!GSH!was!found!to!slow!the!rate!of!Cdk2!modification!by!a!factor!of!~2.! […]
as §1, §2, §3
GSTBCdk2" and" GSTBcyclin" A2:! Harvested! cells! were! resuspended! in! 50! mM! HEPES! buffer! (pH7.5)! containing! 150! mM! NaCl,! […]
as §12

[3] = biological target: T2, Cdk2(WT); assay: In vitro kinase assay (NADH-coupled) of ligand-conjugated pCdk2 with Cyclin A2; assay type: biochemical; set-up: GST (N, cleaved yes); made in house; host or cells: E. coli Tuner(DE3); settings: for Kinase activity ± s.e.m relative to Cdk2(WT): n=3
Experimental: as §1, §2, §3, §4, §5, §6, §7, §8, §9, §10, §11
MgCl2!was! added! after! GST! cleavage! to! minimise! protein! aggregation! and! gel! filtration! was! performed! with! 50! mM! HEPES!
buffer! (pH! 7.5)! containing! 150! mM! NaCl,! 100! mM! MgCl2,! 2! mM! DTT.! ! GSTRCAK1! was! also! purified! using! the! glutathioneR
Sepharose!affinity!workflow,!however!no!protease!or!gel!filtration!steps!were!performed!and!the!enzyme!was!used!crude.!
His6BCdk2:! Cell! lysis! was! performed! as! above! with! the! addition! of! 30! mM! imidiazole! to! the! lysis! buffer.! Following! sonication!
the! supernatant! was! incubated! for! 1! hour! with!nickel! sulfate! charged! NTA! agarose! beads,! washed! with! lysis!buffer! suppleR
mented!with!50!mM!imidiazole!and!then!His6RCdk2!eluted!with!lysis!buffer!containing!500!mM!imidiazole.!After!dialysis!against!
100! mM! phosphate! buffer! (pH! 8)! containing! 1! mM! DTT,! His6RCdk2! was! concentrated! and! loaded! onto! a! Superdex! 75! (16/60)!
column,!eluting!with!100!mM!phosphate!buffer!(pH!8)!without!reducing!agent."
I., Acrylamide, labelling, of, Cdk2, for, crystallography, TdCD, kinase, assays, and, intact%
protein,mass,spectrometry,
Cdk2! (10! µM)! was! reacted! with! acrylamide! ligands! at! 500! µM! in! 100! mM! phosphate! buffer! (pH! 8)! containing! 1%! DMSO,! until!
labelling! reached! completion! (as! monitored! by! fluorescence! quench! assay! and/or! intact! protein! mass! spectrometry).! Excess!
ligand! was! subsequently! removed! by! serial! dilution! and! concentration! (×5)! into! the!appropriate! buffer! using! Amicon! UltraR0.5!
centrifugal!filter!devices!(MW!cutRoff!=!10!kDa).!
J.,Intact%protein,mass,spectrometry, […]

[4] = Cdk2(WT) completely modified with compound

modification of Cdk2(C177A) by intact protein mass spectrometry [1] | factor by which 1 mM GSH slows the rate of Cdk2 modification ([2]; Cdk2(WT) 5 µM, compound 0.5 mM, pH 8.0, room temperature, monitored after 6.25 and 24 h) | modification of Cdk2(WT) by intact protein mass spectrometry ([2]; even in the presence of millimolar glutathione) | inhibition of kinase activity [3, 4] | Kinase activity ± s.e.m relative to Cdk2(WT) [3, 4] [%] | inhibition of kinase activity (in words) ([3]; Cdk2(WT) modified with compound) | Structure (SMILES)
unaffected | ~ 2 | mono‐modifies | about 83% | 16.8±3.1 | – | C=CC(=O)N1CCN(C(=O)OC(C)(C)C)c2ccccc21 [Acrylamide 1]
– | – | – | – | 96.6±5.6 | no significant inhibition | C=CC(=O)N1CCN(C(=O)OC)c2ccccc21 [Acrylamide 2]
